Assay results published in ChEMBL document CHEMBL1201862, “PubChem BioAssay data set” (2004).
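Values below derive from 48-hour exposures of cells grown in 96-well plates, with endpoints linearly interpolated between the two concentrations bracketing the appropriate inhibition level. Abbreviation: GI50, concentration required for 50% inhibition of growth.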 Calls of active or inactive are those of the source. Cut-off read from the data, not from the text of the source: active = GI50 up to about 1.1 µM and inactive = higher. Where a SMILES comes first, the peptide text is derived from it. [ ]: non-standard residue; d: D form. Phe(4-Cl) = N[CH](Cc1ccc(Cl)cc1)C(=O)O

Tests used:
Experiment in all cases: DTP human tumour cell line panel, 48 h
[1] = system: SF-295
[2] = system: K562
[3] = system: SK-MEL-28
[4] = system: A549
[5] = system: SK-OV-3
[6] = system: HOP-92
[7] = system: COLO 205
[8] = system: 786-0
[9] = system: NCI-H522
[10] = system: SW-620
[11] = system: SF-268
[12] = system: IGROV-1
[13] = system: NCI-H460
[14] = system: OVCAR-5
[15] = system: EKVX
[16] = system: RXF 393

Measured: GI50

COc1ccc2c(c1)NC1(O)c3ccccc3C(=O)C21O (centres undefined)
inactive: [1] > 100 µM | [2] > 100 µM | [3] > 100 µM | [4] > 100 µM | [5] > 100 µM | [6] > 100 µM | [7] > 100 µM | [8] > 100 µM | [9] > 100 µM | [10] > 100 µM | [11] > 100 µM | [12] > 100 µM | [13] > 100 µM

CCCCC#COP(=O)(OCC)OCC
inactive: [1] > 100 µM | [4] > 100 µM | [5] > 100 µM | [7] > 100 µM | [14] > 100 µM | [8] > 100 µM | [9] > 100 µM | [10] > 100 µM | [11] > 100 µM | [12] > 100 µM | [13] > 100 µM | [15] > 100 µM

COC(=O)C1(F)C(=O)NC(=O)NC1OC (centres undefined)
inactive: [1] > 100 µM | [2] 96.2 µM | [3] 59.6 µM | [4] 5.92 µM | [5] > 100 µM | [6] 45.7 µM | [7] 68.5 µM | [14] > 100 µM | [8] 39.7 µM | [9] 75.5 µM | [10] > 100 µM | [11] 45.4 µM | [12] > 100 µM | [13] 3.52 µM

CC(=O)OCC(=O)[C@@]1(O)CC[C@H]2[C@@H]3CCC4=CC(=O)[C@H](C)C[C@]4(C)[C@H]3[C@@H](O)C[C@@]21C
inactive: [1] > 100 µM | [2] > 100 µM | [3] > 100 µM | [4] > 100 µM | [5] > 100 µM | [6] > 100 µM | [7] > 100 µM | [14] > 100 µM | [8] > 100 µM | [9] > 100 µM | [10] > 100 µM | [11] > 100 µM | [12] > 100 µM | [13] > 100 µM | [15] > 100 µM

COC(=O)CCC(NC(=S)N/N=C/c1ccco1)C(=O)OC (centres undefined)
inactive: [1] > 100 µM | [2] > 100 µM | [3] > 100 µM | [4] > 100 µM | [5] > 100 µM | [7] > 100 µM | [16] > 100 µM | [14] > 100 µM | [8] > 100 µM | [9] > 100 µM | [10] > 100 µM | [11] > 100 µM | [12] > 100 µM | [13] > 100 µM | [15] > 100 µM

CC1=C(c2cc(C(=O)Nc3cccc(C(F)(F)F)c3)nc(NC#N)n2)Sc2ccccc2N1
inactive: [1] > 100 µM | [2] > 100 µM | [3] > 100 µM | [4] > 100 µM | [5] > 100 µM | [6] > 100 µM | [7] > 100 µM | [16] > 100 µM | [14] > 100 µM | [8] 97.5 µM | [10] > 100 µM | [11] > 100 µM | [12] > 100 µM | [13] > 100 µM | [15] > 100 µM

CN(C)CC1CCC(=C2CCCC2)C1=O (centres undefined)
inactive: [1] > 100 µM | [2] 2.86 µM | [3] 14.4 µM | [4] 20.5 µM | [5] > 100 µM | [6] 5 µM | [7] 14.9 µM | [16] 10.5 µM | [14] 17 µM | [8] 7.52 µM | [9] 1.71 µM | [11] 12.4 µM | [12] 17.6 µM | [13] 21.7 µM | [15] 18.6 µM

O=c1c2ccc(Br)cc2nc(-c2ccccc2)n1NC1OC(CO)C(O)C(O)C1O (centres undefined)
inactive: [1] > 100 µM | [2] > 100 µM | [3] > 100 µM | [4] > 100 µM | [5] > 100 µM | [6] > 100 µM | [7] > 100 µM | [14] > 100 µM | [8] > 100 µM | [9] > 100 µM | [10] > 100 µM | [11] > 100 µM | [12] > 100 µM | [13] > 100 µM | [15] > 100 µM

COC1=CC2(C=CC1=O)c1cc(OC)c(OC)cc1CCN2C(=O)c1ccccc1 (centres undefined)
inactive: [1] > 100 µM | [2] > 100 µM | [3] > 100 µM | [4] > 100 µM | [5] > 100 µM | [6] > 100 µM | [7] > 100 µM | [16] > 100 µM | [8] > 100 µM | [9] > 100 µM | [10] > 100 µM | [12] > 100 µM | [15] > 100 µM

Cc1ccc2c(c1)C(c1cccc3ccccc13)OC2=O (centres undefined)
inactive: [1] 61 µM | [2] > 100 µM | [3] > 100 µM | [4] 89.3 µM | [5] 86.3 µM | [7] > 100 µM | [16] 27.8 µM | [14] > 100 µM | [8] 56.9 µM | [9] > 100 µM | [10] > 100 µM | [11] > 100 µM | [12] > 100 µM | [13] > 100 µM | [15] 69.8 µM

CS(=O)(=O)NNS(=O)(=O)c1ccc(Cl)cc1
inactive: [1] > 100 µM | [2] > 100 µM | [4] > 100 µM | [7] > 100 µM | [16] 26.1 µM | [8] > 100 µM | [9] 90.8 µM | [10] > 100 µM | [12] > 100 µM | [13] > 100 µM | [15] 76.4 µM

CCOC(=O)c1c(-c2ccccc2)oc(-c2ccccc2)c1C(=O)OCC
inactive: [1] > 100 µM | [2] 67.3 µM | [3] > 100 µM | [4] > 100 µM | [5] > 100 µM | [6] > 100 µM | [7] 99.1 µM | [16] > 100 µM | [14] > 100 µM | [8] > 100 µM | [9] > 100 µM | [10] > 100 µM | [11] > 100 µM | [12] > 100 µM | [15] > 100 µM

COC(=N)c1csc(C2OC(CO)C(O)C2O)n1 (centres undefined)
inactive: [1] > 100 µM | [2] > 100 µM | [3] > 100 µM | [4] > 100 µM | [5] > 100 µM | [6] > 100 µM | [7] > 100 µM | [14] > 100 µM | [8] > 100 µM | [9] > 100 µM | [10] > 100 µM | [11] > 100 µM | [12] > 100 µM | [13] > 100 µM | [15] > 100 µM

CC(O)C(NC(=O)C(Cc1ccccc1)NC(=O)C(NC(=O)C(CCCCN)NC(=O)C(Cc1c[nH]c2ccccc12)NC(=O)C(Cc1ccc(O)cc1)NC(=O)C(Cc1ccc(Cl)cc1)NC(=O)C(N)Cc1ccccc1)C(C)O)C(N)=O (centres undefined) (H-F[Phe(4-Cl)]YWKTFT-NH2; configuration not given here)
inactive: [1] 8.53 µM | [2] 15.6 µM | [3] 20.7 µM | [4] 16.2 µM | [5] 27.6 µM | [7] 25.9 µM | [16] 16 µM | [8] 22.4 µM | [12] 19.9 µM | [13] 13.7 µM | [15] 16.4 µM
